Assay results published in article PMC4264174, “The Discovery of Aurora Kinase Inhibitor by Multi-Docking-Based Virtual Screening” (International Journal of Molecular Sciences, 2014).

Legend:
Aurora-A (h) = target: T1, Aurora-A (h) (Homo sapiens, UniProt O14965); experiment: Kinase Profiler in vitro assay (Merck Millipore), aurora-A; format: biochemical; settings: for inhibition at 100 µM: Aurora-A, at 100 μM concentration, with standard deviation; for IC50: at aurora A (h)
T1 construct: purchased Merck Millipore, Inc. (Abingdon, UK), Kinase Profiler service
T1 sequence (O14965 1-403): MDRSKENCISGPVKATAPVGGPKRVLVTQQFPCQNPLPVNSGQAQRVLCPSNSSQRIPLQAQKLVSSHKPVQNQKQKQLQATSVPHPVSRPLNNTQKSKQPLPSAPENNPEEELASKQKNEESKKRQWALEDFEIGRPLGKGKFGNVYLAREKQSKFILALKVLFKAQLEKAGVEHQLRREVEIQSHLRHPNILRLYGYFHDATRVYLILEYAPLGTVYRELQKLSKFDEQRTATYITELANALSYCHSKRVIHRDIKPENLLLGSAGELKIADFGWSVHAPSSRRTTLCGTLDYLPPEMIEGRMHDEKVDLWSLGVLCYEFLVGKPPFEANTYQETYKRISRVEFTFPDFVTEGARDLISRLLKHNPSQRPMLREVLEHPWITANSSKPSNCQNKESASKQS
Description: The fragments obtained from the above-mentioned docking study were purchased from commercial websites and evaluated using the Kinase Profiler in vitro assay technique developed by Merck Millipore, Inc., (Abingdon, UK). The aurora-A kinase was maintained with 8 mM […] at pH 7.0, 0.2 mM EDTA, 200 μM LRRASLG (Kemptide, American peptide Company, Sunnyvale, CA, USA), 10 mM MgAcetate, and [γ-33P-ATP]. The kinase reaction began with the addition of the MgATP mixture. The buffer-MgATP mixture was incubated for 40 min at room temperature. After incubation, the reaction was stopped through the addition of a 3% phosphoric acid solution. Then, a 10 μL reaction was spotted onto a P30 filtermat. The spotted P30 filtermat was washed three times for 5 min in 50 mM phosphoric acid and once in methanol prior to the drying and scintillation counting step.

Aurora-B (h) = target: T2, Aurora-B (h) (Homo sapiens, UniProt Q96GD4); experiment: Kinase Profiler in vitro assay, aurora-B; format: biochemical
T2 construct: purchased Merck Millipore, Inc. (Abingdon, UK), Kinase Profiler service

Aurora-C (h) = target: T3, Aurora-C (h) (Homo sapiens, UniProt Q9UQB9); experiment: Kinase Profiler in vitro assay, aurora-C; format: biochemical
T3 construct: purchased Merck Millipore, Inc. (Abingdon, UK), Kinase Profiler service
T3 sequence (Q9UQB9 1-309): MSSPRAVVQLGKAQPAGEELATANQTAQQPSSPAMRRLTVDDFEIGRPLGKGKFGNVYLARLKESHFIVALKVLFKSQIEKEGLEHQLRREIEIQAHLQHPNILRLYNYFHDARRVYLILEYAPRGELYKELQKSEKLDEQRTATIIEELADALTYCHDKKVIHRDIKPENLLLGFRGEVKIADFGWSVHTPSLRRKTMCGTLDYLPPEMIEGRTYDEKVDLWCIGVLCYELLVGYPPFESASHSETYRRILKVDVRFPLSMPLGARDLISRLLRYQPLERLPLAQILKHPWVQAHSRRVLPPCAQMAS

aurora-A = settings: cited from earlier work

T2 sequence (Q96GD4 whole entry): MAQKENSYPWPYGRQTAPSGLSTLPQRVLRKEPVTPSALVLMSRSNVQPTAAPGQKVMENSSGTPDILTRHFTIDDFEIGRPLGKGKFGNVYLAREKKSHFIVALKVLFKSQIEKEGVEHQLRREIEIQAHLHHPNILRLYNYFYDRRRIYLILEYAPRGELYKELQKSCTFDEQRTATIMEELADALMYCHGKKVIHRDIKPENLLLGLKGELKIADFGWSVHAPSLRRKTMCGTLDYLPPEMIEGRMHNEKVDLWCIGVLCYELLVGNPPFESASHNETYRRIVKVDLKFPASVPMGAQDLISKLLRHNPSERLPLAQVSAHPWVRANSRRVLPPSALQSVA

Row | Structure (SMILES) | inhibition at 100 µM (Aurora-A (h)) | also measured
1 | O=C(Nc1onc2c1CCCC2)c1nc(-c2cnccn2)no1 [Fragment 14] | 39 ± 3% | –
2 | Cc1nn2c(nc3ccccc32)[nH]c1=O [Fragment 5] | 31 ± 6% | –
3 | CN[C@@H]1C[C@H]2O[C@@](C)([C@@H]1OC)n1c3ccccc3c3c4c(c5c6ccccc6n2c5c31)C(=O)NC4 [Staurosporine, reference compound] | – | inhibition at 10 µM (Aurora-A (h)): 100%
4 | Cc1nnsc1C(=O)Nc1onc2c1CSC2 [Fragment 13] | > 50% | –
5 | O=C1C(Nc2ccc(Cl)cc2)=C(Cl)C(=O)c2[nH]c(C(F)(F)F)nc21 [Compound 16] | – | inhibition at 10 µM (Aurora-A (h)): 52%; IC50 (Aurora-A (h)): 9.17 µM; inhibition at 10 µM (Aurora-B (h)): 84 ± 1%; inhibition at 10 µM (Aurora-C (h)): 8 ± 8%
6 | O=C1C=CC(=O)c2[nH]c(C(F)(F)F)nc21 [Fragment 12] | 93 ± 2% | –
7 | COC(=O)c1nc2[nH]c(=O)cc(C)n2n1 [Fragment 8] | 24 ± 4% | –
8 | C/C=C/C(=O)Nn1cnc2c(cnn2-c2ccccc2)c1=O [Fragment 15] | 2 ± 15% | –
9 | COc1cnc(NCc2ncn[nH]2)nc1-c1ccnn1C [Fragment 11] | 25 ± 2% | –
10 | COC(=O)CSc1nnc(-c2n[nH]c3c2CCC3)n1N [Fragment 4] | 28 ± 1% | –
11 | O=C1C(Nc2cccc(Cl)c2)=C(Cl)C(=O)c2[nH]c(C(F)(F)F)nc21 [Compound 17] | – | inhibition at 10 µM (Aurora-A (h)): 65%; IC50 (Aurora-A (h)): 7.47 µM; inhibition at 10 µM (Aurora-B (h)): 76 ± 1%; inhibition at 10 µM (Aurora-C (h)): 17 ± 4%
13 | Cc1nonc1-c1ccnc2nnc(N)n12 [Fragment 9] | 8 ± 10% | –
14 | O=c1cc(-c2ccccc2)[nH]c2nc(SCc3ccccc3)nn12 [Fragment 2] | 13 ± 12% | –
15 | Cc1cc(C)cc(Nc2ncc3c(n2)C[C@@H](c2cccs2)CC3=O)c1 [Fragment 3] | > 50% | –
16 | COC(=O)/C=C1\S/C(=N\NC(=O)c2snnc2C)NC1=O [Fragment 7] | 35 ± 3% | –
